Results published in patent US10287301B2 (Achillion Pharmaceuticals, Inc., priority 2015, dated 2019).

molecular target: Human Factor D (Homo sapiens (Human), UniProt P00746); experiment: Human Factor D Assay; format: biochemical; settings: Human Factor D 80 nM, substrate Z-L-Lys-SBzl; read-out: IC50
Outline: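 First, compound at various concentrations is mixed with 80 nM (final) human serum Factor D in 50 mM Tris, 1M NaCl, pH 7.5 for 5 min at room temperature.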

Sequence of Human Factor D (P00746 26-253): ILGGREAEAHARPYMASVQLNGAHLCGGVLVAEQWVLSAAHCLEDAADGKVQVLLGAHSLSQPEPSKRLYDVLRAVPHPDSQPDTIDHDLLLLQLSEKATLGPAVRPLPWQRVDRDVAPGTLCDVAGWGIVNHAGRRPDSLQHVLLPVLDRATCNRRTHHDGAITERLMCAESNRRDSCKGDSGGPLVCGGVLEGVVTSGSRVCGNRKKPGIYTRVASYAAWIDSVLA

SMILES	IC50 [nM]
COc1cc(C)cc2c1OCCC2NC(=O)[C@@H]1C[C@@H](F)CN1C(=O)Cn1nc(C(N)=O)c2cc(-c3ccnnc3)ccc21 (stereo partly drawn) [Compound 122, 1-(2-((2S,4R)-4-fluoro-2-(8-methoxy-6-methylchroman-4-ylcarbamoyl)pyrrolidin-1-yl)-2-oxoethyl)-5-(pyridazin-4-yl)-1H-indazole-3-carboxamide]	> 10000
NC(=O)c1nn(CC(=O)N2C[C@H](F)C[C@H]2C(=O)Nc2nccc(Cl)n2)c2ccc(-c3ccnnc3)cc12 [Compound 178, 1-(2-((2S,4R)-2-(4-chloropyrimidin-2-ylcarbamoyl)-4-fluoropyrrolidin-1-yl)-2-oxoethyl)-5-(pyridazin-4-yl)-1H-indazole-3-carboxamide]	> 10000
CC(=O)c1cn(CC(=O)N2C[C@H](F)C[C@H]2C(=O)Nc2noc(-c3ccccc3Cl)n2)c2ccc(-c3ccnnc3)cc12 [Compound 182, (2S,4R)-1-(2-(3-acetyl-5-(pyridazin-4-yl)-1H-indol-1-yl)acetyl)-N-(5-(2-chlorophenyl)-1,2,4-oxadiazol-3-yl)-4-fluoropyrrolidine-2-carboxamide]	< 1000

same assay, conditions: Human Factor D assay of Example 8; Table 2; read-out: IC50

SMILES	IC50 [nM]
COc1cccc(NC(=O)[C@@H]2C[C@@H](F)CN2C(=O)Cn2nc(C(C)=O)c3cc(-c4cnc5cc(C)nn5c4)ccc32)c1F [Compound 275, (2S,4R)-1-(2-(3-acetyl-5-(2-methylpyrazolo[1,5-a]pyrimidin-6-yl)-1H-indazol-1-yl)acetyl)-4-fluoro-N-(2-fluoro-3-methoxyphenyl) pyrrolidine-2-carboxamide]	< 1000
CC(=O)c1nn(CC(=O)N2C[C@H](F)C[C@H]2C(=O)Nc2cccc(Br)n2)c2ccc(-c3cnc4cc(C)nn4c3)cc12 [Compound 243, (2S,4R)-1-(2-(3-acetyl-5-(2-methylpyrazolo[1,5-a]pyrimidin-6-yl)-1H-indazol-1-yl)acetyl)-N-(6-bromopyridin-2-yl)-4-fluoropyrrolidine-2-carboxamide]	< 1000
CC(=O)c1cn(CC(=O)N2C[C@H](F)C[C@H]2C(=O)Nc2cccc(-c3ccccc3Cl)c2F)c2ccc(-c3cnc(S(C)(=O)=O)nc3)cc12 [Compound 210, (2S,4R)-1-(2-(3-acetyl-5-(2-(methylsulfonyl)pyrimidin-5-yl)-1H-indol-1-yl)acetyl)-N-(2′-chloro-2-fluorobiphenyl-3-yl)-4-fluoropyrrolidine-2-carboxamide]	< 1000
CC(=O)c1nn(CC(=O)N2C[C@H](F)C[C@H]2C(=O)Nc2cccc(OC(F)F)c2F)c2ccc(-c3cnc4cc(C)nn4c3)cc12 [Compound 281, (2S,4R)-1-(2-(3-acetyl-5-(2-methylpyrazolo[1,5-a]pyrimidin-6-yl)-1H-indazol-1-yl)acetyl)-N-(3-(difluoromethoxy)-2-fluorophenyl)-4-fluoropyrrolidine-2-carboxamide]	< 1000
CC(=O)c1nn(CC(=O)N2C[C@H](F)C[C@H]2C(=O)Nc2cccc(Br)n2)c2ccc(-c3cnc4cc(C(N)=O)nn4c3)cc12 [Compound 288, 6-(3-Acetyl-1-(2-((2S,4R)-2-((6-Bromopyridin-2-yl)carbamoyl)-4-fluoropyrrolidin-1-yl)-2-oxoethyl)-1H-indazol-5-yl)pyrazolo[1,5-a]pyrimidine-2-carboxamide]	< 1000
CC(=O)c1nn(CC(=O)N2C[C@H](F)C[C@H]2C(=O)Nc2cccc(Br)n2)c2ccc(-c3cnc4c(c3)ncn4C)cc12 [Compound 241, (2S,4R)-1-(2-(3-acetyl-5-(3-methyl-3H-imidazo[4,5-b]pyridin-6-yl)-1H-indazol-1-yl)acetyl)-N-(6-bromopyridin-2-yl)-4-fluoropyrrolidine-2-carboxamide]	< 1000

same assay, conditions: Human Factor D, Table 3; read-out: IC50

SMILES	IC50 [nM]
CC(=O)c1nn(CC(=O)N2[C@@H]3C[C@@H]3C[C@H]2C(=O)Nc2cncc(Br)n2)c2ccc(-c3ccc4nc(C)nn4c3)cc12 [Compound 659, (1R,3S,5R)-2-(2-(3-Acetyl-5-(2-methyl-[1,2,4]triazolo[1,5-a]pyridin-6-yl)-1H-indazol-1-yl)acetyl)-N-(6-bromopyrazin-2-yl)-2-azabicyclo[3.1.0]hexane-3-carboxamide]	< 1000
CC(=O)c1cn(CC(=O)N2C[C@H](F)C[C@H]2C(=O)Nc2cc(C)cc(Br)n2)c2ccc(-c3cnc4cc(C)nn4c3)cc12 [Compound 657, (2S,4R)-1-(2-(3-Acetyl-5-(2-methylpyrazolo[1,5-a]pyrimidin-6-yl)-1H-indol-1-yl)acetyl)-N-(6-bromo-4-methylpyridin-2-yl)-4-fluoropyrrolidine-2-carboxamide]	< 1000

same assay, conditions: Table 3; Human Factor D 80 nM, substrate Z-L-Lys-SBzl; read-out: IC50 (Stars)

SMILES	IC50 [nM]
CNc1ncc(-c2ccc3c(c2)c(C(C)=O)nn3CC(=O)N2[C@@H]3C[C@@H]3C[C@H]2C(=O)Nc2cncc(Br)n2)cn1 [Compound 379, (1R,3S,5R)-2-(2-(3-Acetyl-5-(2-(methylamino)pyrimidin-5-yl)-1H-indazol-1-yl)acetyl)-N-(6-bromopyrazin-2-yl)-2-azabicyclo[3.1.0]hexane-3-carboxamide]	< 1000
CC(=O)c1nn(CC(=O)N2C[C@H](F)C[C@H]2C(=O)Nc2cccc(Br)n2)c2ccc(-c3cnc(CC#N)nc3)cc12 [Compound 391, (2S,4R)-1-(2-(3-Acetyl-5-(2-(cyanomethyl)pyrimidin-5-yl)-1H-indazol-1-yl)acetyl)-N-(6-bromopyridin-2-yl)-4-fluoropyrrolidine-2-carboxamide]	< 1000
CC(=O)c1nn(CC(=O)N2C[C@H](F)C[C@H]2C(=O)Nc2cnc(C)c(Br)n2)c2ccc(-c3cnc(C)nc3)cc12 [Compound 349, (2S,4R)-1-(2-(3-Acetyl-5-(2-methylpyrimidin-5-yl)-1H-indazol-1-yl)acetyl)-N-(6-bromo-5-methylpyrazin-2-yl)-4-fluoropyrrolidine-2-carboxamide]	< 1000
CC(=O)c1nn(CC(=O)N2[C@@H]3C[C@@H]3C[C@H]2C(=O)Nc2cnc(C)c(Br)n2)c2ccc(-c3cnc(C)nc3)cc12 [Compound 365, (1R,3S,5R)-2-(2-(3-Acetyl-5-(2-methylpyrimidin-5-yl)-1H-indazol-1-yl)acetyl)-N-(6-bromo-5-methylpyrazin-2-yl)-2-azabicyclo[3.1.0]hexane-3-carboxamide]	< 1000
CC(=O)c1cn(CC(=O)N2C[C@H](F)C[C@H]2C(=O)NCCCc2ccccc2)c2ccc(-c3cnc(C)nc3)cc12 [Compound 444, (2S,4R)-1-(2-(3-Acetyl-5-(2-methylpyrimidin-5-yl)-1H-indol-1-yl)acetyl)-4-fluoro-N-(3-phenylpropyl)pyrrolidine-2-carboxamide]	< 1000
COc1cc(Br)nc(NC(=O)[C@@H]2C[C@@]3(C)C[C@H]3N2C(=O)Cn2nc(C(C)=O)c3cc(-c4cnc(C)nc4)ccc32)c1 [Compound 484, (1R,3S,5R)-2-(2-(3-Acetyl-5-(2-methylpyrimidin-5-yl)-1H-indazol-1-yl)acetyl)-N-(6-bromo-4-methoxypyridin-2-yl)-5-methyl-2-azabicyclo[3.1.0]hexane-3-carboxamide]	< 1000

same assay, conditions: read-out: IC50 (Stars)

SMILES	IC50 [nM]
Cc1ncc(-c2ccc3c(c2)c(C(C)O)nn3CC(=O)N2C[C@H](F)C[C@H]2C(=O)Nc2cccc(Br)n2)cn1 (stereo partly drawn) [Compound 361, (2S,4R)-N-(6-bromopyridin-2-yl)-4-fluoro-1-(2-(3-(1-hydroxyethyl)-5-(2-methylpyrimidin-5-yl)-1H-indazol-1-yl)acetyl)pyrrolidine-2-carboxamide]	1000 to 10000
